According to patent US20060233857A1, “Degradable elastomeric network” (priority 2005, published 2006):
Structures can show the parent of a compound that is named as a salt. Where two headings read alike, the source gives them in different places.

Legend:
[1] = Diffusivity by Pulsed Field Gradient Nuclear Magnetic Resonance; format: physicochemical; settings: 37° C.
Method: Goserelin acetate and vitamin B12 were incorporated into cylindrical polymer matrices as described in Example 2, but using only PEGD 24000 g/mol. Goserelin acetate is a peptide having the sequence Pyr-His-Trp-Ser-Tyr-D-Ser(tBu)-Leu-Arg-Pro-Azagly-NH2 acetate salt. Its molecular weight is 1269 g/mol and it has a water solubility of 20 mg/mL at 25° C. […] The diffusivities of these two compounds was determined at 37° C. using Pulsed Field Gradient Nuclear Magnetic Resonance. The measured diffusivities were 2.8±0.1 and 2.6±0.1 (10^−6) cm^2/s for vitamin B12 and goserelin, respectively. These diffusivities are essentially the same. In vitro release experiments on these cylinders were performed as described in Example 2. […] As the diffusivities of the two compounds are very similar, and degradation of the polymer occurs slowly, release cannot be controlled by either diffusion or polymer degradation. The higher release rate must therefore be a result of the higher aqueous solubility of the goserelin acetate. Thus, release is driven by the dissolution rate of the compound in the aqueous regions of the polymer matrix.

[2] = cited from earlier work
[3] = In vitro release of goserelin acetate and vitamin B12 from ASCP 2700 / PEGD 24000 cylinders; format: physicochemical; settings: 90% ASCP 2700 and 10% PEGD 24000 cylinders, loading 1 w/w %
Excerpt: Acrylated star-poly(ε-caprolactone-co-D,L-lactide) (ASCP) of molecular weight 2700 g/mol was co-dissolved in tetrahydrofuran with poly(ethylene glycol)diacrylate (PEGD) of molecular weight 4000 g/mol or 24000 g/mol. The total polymer concentration was 1 g/mL THF. The mass ratio of PEGD:ASCP was 1:9 (10% PEGD). In this solution was suspended vitamin B12 particles that had been ground and sieved to less than 100 μm in diameter. The total mass of vitamin B12 to polymer was 1:99 (1% vitamin B12). 1.5 w/w % of 2,2-dimethoxy-2-phenyl-acetophenone (DMPA) photoinitiator was also included. The suspension was injected into a 1.8 mm diameter glass tube to a length of 34 cm and sealed with parafilm. […] The concentration of vitamin B12 in the release samples was measured with a Spectromax microplate spectrophotometer. 0.250 mL of vitamin B12 sample per well was added into a 96 well microplate, and the absorbance of these samples was read at 381 nm. […]
Goserelin acetate and vitamin B12 were incorporated into cylindrical polymer matrices as described in Example 2, but using only PEGD 24000 g/mol. […] The diffusivities of these two compounds was determined at 37° C. using Pulsed Field Gradient Nuclear Magnetic Resonance. The measured diffusivities were 2.8±0.1 and 2.6±0.1 (10^−6) cm^2/s for vitamin B12 and goserelin, respectively. […]

[4] = Effect of cross-linking UV irradiation on vitamin B12 absorbance; format: physicochemical; settings: 10 mW/cm^2 long-wave UV 5 minutes, with photo-initiator, in ethyl acetate or non-acrylated polymer solution
Method: As vitamin B12 absorbs within the UV region, it was important to determine whether the cross-linking conditions affected the vitamin B12. The vitamin B12 was therefore suspended in ethyl acetate in the presence of the photo-initiator, and in a non-acrylated polymer solution also containing the photo-initiator, and subjected to 10 mW/cm^2 long-wave UV irradiation for 5 minutes. The vitamin B12 was then filtered from solution, dried, and dissolved in varying concentrations and their absorbance measured and compared to that of solutions prepared from the as-received vitamin B12.

| change in the absorbance of the vitamin B12 due to cross-linking conditions [4] | Compound | diffusivity [1] | water solubility ([2]; 25° C.) [mg/mL] | release rate compared with vitamin B12 (in words) [3] | water solubility ([2]; temperature not given) [mg/mL] |
| --- | --- | --- | --- | --- | --- |
| – | CC(C)C[C@H](NC(=O)[C@@H](COC(C)(C)C)NC(=O)[C@H](Cc1ccc(O)cc1)NC(=O)[C@H](CO)NC(=O)[C@H](Cc1c[nH]c2ccccc12)NC(=O)[C@H](Cc1cnc[nH]1)NC(=O)[C@@H]1CCC(=O)N1)C(=O)N[C@@H](CCCNC(=N)N)C(=O)N1CCC[C@H]1C(=O)NNC(N)=O [Goserelin acetate, Pyr-His-Trp-Ser-Tyr-D-Ser(tBu)-Leu-Arg-Pro-Azagly-NH2 acetate salt] | 2.6±0.1 (10^−6) cm^2/s | 20 | appreciably faster rate | – |
| no significant change | vitamin B12 | 2.8±0.1 (10^−6) cm^2/s | – | – | 12.5 |
